Target: T1, EcGlyRS ((αβ)2 orphan GlyRS, full-length; EcGlyRS_FL) (Escherichia coli, UniProt P00960)
T1 construct: gene glyQ; full-length α and β subunits co-expressed in E. coli BL21(DE3); C-terminal His6 tag on β, no cleavage told; (αβ)2 heterotetramer; with Glycine--tRNA ligase beta subunit
T1 sequence (P00960 1-303): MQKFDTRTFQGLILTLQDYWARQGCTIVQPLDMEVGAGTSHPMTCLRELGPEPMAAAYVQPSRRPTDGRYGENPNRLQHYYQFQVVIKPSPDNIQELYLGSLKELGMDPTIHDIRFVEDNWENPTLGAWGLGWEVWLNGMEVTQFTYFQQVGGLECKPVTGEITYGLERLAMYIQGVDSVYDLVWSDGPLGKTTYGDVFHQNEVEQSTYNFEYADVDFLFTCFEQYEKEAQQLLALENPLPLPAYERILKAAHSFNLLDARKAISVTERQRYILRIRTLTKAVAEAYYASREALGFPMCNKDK
T1 sequence (P00961 2-689 partner): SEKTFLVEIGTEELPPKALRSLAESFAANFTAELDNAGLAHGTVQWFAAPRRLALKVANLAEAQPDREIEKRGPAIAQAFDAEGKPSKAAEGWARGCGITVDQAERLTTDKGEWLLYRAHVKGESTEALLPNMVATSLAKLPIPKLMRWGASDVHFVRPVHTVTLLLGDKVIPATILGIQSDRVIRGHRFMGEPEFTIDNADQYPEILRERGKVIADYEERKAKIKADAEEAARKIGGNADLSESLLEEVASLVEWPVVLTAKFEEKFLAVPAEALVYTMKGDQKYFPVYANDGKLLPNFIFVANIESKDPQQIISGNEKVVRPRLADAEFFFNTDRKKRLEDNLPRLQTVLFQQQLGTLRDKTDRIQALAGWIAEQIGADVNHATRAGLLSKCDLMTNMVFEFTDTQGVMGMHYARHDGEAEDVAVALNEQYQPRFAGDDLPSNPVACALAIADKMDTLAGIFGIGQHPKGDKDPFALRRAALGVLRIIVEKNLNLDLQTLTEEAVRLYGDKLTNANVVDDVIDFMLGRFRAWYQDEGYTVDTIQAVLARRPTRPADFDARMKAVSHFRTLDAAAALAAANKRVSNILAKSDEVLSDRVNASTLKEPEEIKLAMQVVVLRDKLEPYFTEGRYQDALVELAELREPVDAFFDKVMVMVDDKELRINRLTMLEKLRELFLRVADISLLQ
Test: ATP consumption assay (Kinase-Glo luminescence)
Assay type: biochemical
Settings: 4 μM ATP, 500 μM glycine, tRNA-Gly(GCC) 0.25 mg/ml, 40 mM MgCl2, pH 7.5, room temperature; 50 nM enzyme

Question: Which “ATP consumption assay (Kinase-Glo luminescence)” value does the source give for `Nc1ncnc2c1ncn2[C@@H]1O[C@H](COP(=O)(O)OP(=O)(O)OP(=O)(O)O)[C@@H](O)[C@H]1O` [ATP] here?
Answer: The value was “An ATP consumption assay was used to evaluate the aminoacylation activity of EcGlyRS on tRNA^Gly”.

Source: publication PMC9908026 (Science Advances, 2023)
